From ChEMBL document CHEMBL5252624, “Antifungal evaluation of quinoline-chalcone derivatives combined with FLC against drug-resistant Candida albicans” (2023) come the findings set out here.

As a reminder, the MIC80 is an inhibitory concentration at the 80% level, which refers to growth in some studies and to a panel of isolates in others.

The subject of test [1] is Candida albicans. Nature of the test: Antifungal activity against Candida albicans ATCC SC5314 assessed as fractional inhibitory concentration index in presence of fluconazole by microdilution method. It is filed as functional.
The test system of test [2] is Candida albicans. Nature of the test: Antifungal activity against […] assessed as fractional inhibitory concentration index in presence of fluconazole by microdilution method. It is filed as functional. For orientation: Broth dilution looks for growth in wells or tubes with falling amounts of substance.
In test [3] the test system is Candida albicans. The experiment in a line: Antifungal activity against Candida albicans ATCC SC5314 assessed as fungal growth inhibition in presence of fluconazole by microdilution method. It is filed as functional.
Test [4] deals with Candida albicans. The experiment in a line: Antifungal activity against Candida albicans ATCC SC5314 assessed as fungal growth inhibition by microdilution method. It is filed as functional.
Test [5] relates to Candida albicans. The experiment in a line: Antifungal activity against […] assessed as fungal growth inhibition in presence of fluconazole by microdilution method. It is filed as functional.
In test [6] the test system is Candida albicans. Nature of the test: Antifungal activity against Candida albicans ATCC SC5314 assessed as decrease in number of hypha at 32 microg/ml measured for 4 to 8 hrs in presence fluconazole of by inverted microscopic analysis. It is filed as functional, organism-based. The following applies: dose 32.0 µg/ml, time 4-8 hrs.
Test [7] relates to Candida albicans. The experiment in a line: Inhibition of biofilm formation in Candida albicans ATCC SC5314 at 32 microg/ml in presence fluconazole measured at 24 hrs. It is filed as functional, organism-based. The following applies: dose 32.0 µg/ml.
For test [8], the system named is Candida albicans. The experiment in a line: Inhibition of mitochondrial membrane potential in Candida albicans in presence of fluconazole. It is filed as functional, organism-based.
For test [9], the system named is Candida albicans. The experiment in a line: Downregulation of ATP level in Candida albicans in presence of fluconazole. It is filed as functional, organism-based.
The subject of test [10] is Candida albicans. Nature of the test: Induction of ROS accumulation in Candida albicans assessed as increase in intracellular ROS level in presence of fluconazole. It is filed as functional, organism-based.
Test [11] relates to Candida albicans. The experiment in a line: Antifungal activity against Candida albicans ATCC SC5314 assessed as reduction in hypha length at 32 microg/ml measured for 4 to 8 hrs in presence fluconazole of by inverted microscopic analysis. It is filed as functional, organism-based. The following applies: dose 32.0 µg/ml, time 4-8 hrs.
In test [12] the test system is Candida albicans. Nature of the test: Antifungal activity against […] assessed as fungal growth inhibition measured for 72 hrs by time kill assay. It is filed as functional, organism-based.
The subject of test [13] is Candida albicans. Nature of the test: Downregulation of ATP level in Candida albicans. It is filed as functional, organism-based.
Test [14] concerns Candida albicans. The experiment in a line: Antifungal activity against […] assessed as fungal growth inhibition by microdilution method. It is filed as functional.
Test [15] relates to Candida albicans. Nature of the test: Induction of ROS accumulation in Candida albicans assessed as increase in intracellular ROS level. It is filed as functional, organism-based.
The subject of test [16] is Candida albicans. The experiment in a line: Antifungal activity against […] assessed as fungal growth inhibition in presence of fluconazole by time kill assay. It is filed as functional, organism-based. The following applies: time 72.0 hrs, TDE = time-dependent effect.
Test [17] relates to Candida albicans. The experiment in a line: Inhibition of mitochondrial membrane potential in Candida albicans. It is filed as functional, organism-based.

Activity calls are given as the source filed them. The rule behind the calls is not given here. Bounds are passed on as bounds.

For `Cc1cccc(C)c1Oc1nc2ccccc2cc1/C=C/C(=O)c1ccc([N+](=O)[O-])cc1`, the FICI80 in the test with Candida albicans [1] is reported as 1.52; in the test on Candida albicans [2], 0.23. The MIC80 in the test with Candida albicans [3] is 3.07 µg/mL; in the test on Candida albicans [4], > 200 µg/mL.

As for `CCOc1nc2ccccc2cc1/C=C/C(=O)c1ccc([N+](=O)[O-])cc1`, the FICI80 in the test with Candida albicans [1] amounted to 2.46; with Candida albicans [2], 2. Moreover, the MIC80 with Candida albicans [3] was 4.96 µg/mL; in the test with Candida albicans [4], > 200 µg/mL.

On to `Cc1cccc(C)c1Oc1nc2ccccc2cc1/C=C/C(=O)c1ccc(F)cc1`, for which the values for the FICI80 in the test on Candida albicans [1] and in the test on Candida albicans [2] were 0.58 and 0.33, respectively. Further, the values for the MIC80 in the test on Candida albicans [3], with Candida albicans [4] and with Candida albicans [5] were 1.17 µg/mL, > 200 µg/mL and 65.1 µg/mL, respectively.

In the case of `Cc1cccc(C)c1Oc1nc2ccccc2cc1/C=C/C(=O)c1ccc(OC(F)(F)F)cc1`, the FICI80 with Candida albicans [1] turned out to be 1.17; in the test with Candida albicans [2] it was 2. For the same compound, the MIC80 in the test on Candida albicans [3] was 2.37 µg/mL; in the test on Candida albicans [4], > 200 µg/mL.

Regarding `CN1CCN(c2nc3ccccc3cc2/C=C/C(=O)c2ccc(F)cc2)CC1`, the result with Candida albicans [6], in the test with Candida albicans [9], in the test on Candida albicans [10], in the test with Candida albicans [11], in the test on Candida albicans [12] and in the test with Candida albicans [13] was Active. The result in the test on Candida albicans [15] was Active. The inhibition entry in the test with Candida albicans [7] and in the test on Candida albicans [8] was “Active” each time. Further, the FICI80 in the test on Candida albicans [1] was 1.82; in the test on Candida albicans [2] it was 0.16. Further, the MIC80 in the test on Candida albicans [3] was 3.61 µg/mL; in the test on Candida albicans [4] it was 85.9 µg/mL; in the test with Candida albicans [14], > 200 µg/mL; in the test on Candida albicans [5], 6.4 µg/mL. Also, in the test on Candida albicans [16], the Activity entry was “Tde”.

For `CCN(CC)c1nc2ccccc2cc1/C=C/C(=O)c1ccc(OC(F)(F)F)cc1`, the FICI80 in the test with Candida albicans [1] came out at 0.92; in the test with Candida albicans [2], 0.02. Further, the figures for the MIC80 with Candida albicans [3], in the test on Candida albicans [4] and in the test on Candida albicans [5] were 1.85 µg/mL, > 200 µg/mL and 4.42 µg/mL, respectively.

On to `OC(Cn1cncn1)(Cn1cncn1)c1ccc(F)cc1F` [FLUCONAZOLE], for which the MIC80 in the test with Candida albicans [4] was 2.03 µg/mL; in the test with Candida albicans [14] it was > 200 µg/mL.

As to `CCN(CC)c1nc2ccccc2cc1/C=C/C(=O)c1ccc(F)cc1`, the FICI80 in the test on Candida albicans [1] worked out at 0.93; in the test with Candida albicans [2], 0.03. For the same compound, the MIC80 in the test on Candida albicans [3] is 1.87 µg/mL; with Candida albicans [4], > 200 µg/mL; in the test on Candida albicans [5], 5.36 µg/mL.

Regarding `CCOc1nc2ccccc2cc1/C=C/C(=O)c1ccc(OC(F)(F)F)cc1`, the FICI80 with Candida albicans [1] is 16.04; with Candida albicans [2] it was 0.08. The figures for the MIC80 with Candida albicans [3], in the test on Candida albicans [4] and in the test with Candida albicans [5] were 2.9 µg/mL, > 200 µg/mL and 16 µg/mL, respectively.

As for `CCOc1nc2ccccc2cc1/C=C/C(=O)c1ccc(F)cc1`, the FICI80 in the test on Candida albicans [1] was found to be 2.74; in the test on Candida albicans [2], 2. Moreover, the MIC80 in the test on Candida albicans [3] is 5.54 µg/mL; in the test on Candida albicans [4], > 200 µg/mL.

`CCN(CC)c1nc2ccccc2cc1/C=C/C(=O)c1ccc([N+](=O)[O-])cc1`: the results for the FICI80 in the test on Candida albicans [1] and in the test with Candida albicans [2] were 1.98 and 2, respectively. For the same compound, the results for the MIC80 with Candida albicans [3] and in the test with Candida albicans [4] were 3.99 µg/mL and > 200 µg/mL, respectively.

In the case of `CN1CCN(c2nc3ccccc3cc2/C=C/C(=O)c2ccc([N+](=O)[O-])cc2)CC1`, the inhibition result in the test on Candida albicans [7] is “Active”. Besides, the outcome in the test with Candida albicans [9], in the test on Candida albicans [10], with Candida albicans [12] and in the test with Candida albicans [13] was Active. In addition, the FICI80 in the test with Candida albicans [1] turned out to be 1.25; with Candida albicans [2], 0.17. Further, the MIC80 with Candida albicans [3] was 4.28 µg/mL; in the test with Candida albicans [4], > 200 µg/mL; in the test with Candida albicans [5], 6.9 µg/mL. The result in the test with Candida albicans [15] was inactive. For the same compound, the Activity entry with Candida albicans [16] is “Tde”. Besides, the inhibition entry in the test with Candida albicans [17] is “inactive”.

Consider `O=C(/C=C/c1cc2ccccc2nc1N1CCCCC1)c1ccc(OC(F)(F)F)cc1`, for which the FICI80 in the test with Candida albicans [1] is 2.42; in the test on Candida albicans [2], 2. The MIC80 in the test on Candida albicans [3] was 4.89 µg/mL; in the test on Candida albicans [4], > 200 µg/mL.

In the case of `CN1CCN(c2nc3ccccc3cc2/C=C/C(=O)c2ccc(OC(F)(F)F)cc2)CC1`, the FICI80 amounted to 2.35 with Candida albicans [1] and 0.23 in the test with Candida albicans [2]. The MIC80 in the test with Candida albicans [3] came to 4.28 µg/mL; in the test on Candida albicans [4] it was 17.6 µg/mL; in the test with Candida albicans [14], 17.8 µg/mL; in the test with Candida albicans [5] it was 6.14 µg/mL.

On to `O=C(/C=C/c1cc2ccccc2nc1N1CCCCC1)c1ccc([N+](=O)[O-])cc1`, for which the values for the FICI80 with Candida albicans [1] and in the test with Candida albicans [2] were 2.79 and 2, respectively. In addition, the MIC80 with Candida albicans [3] is 5.64 µg/mL; in the test with Candida albicans [4] it was > 200 µg/mL.

In the case of `O=C(/C=C/c1cc2ccccc2nc1N1CCCCC1)c1ccc(F)cc1`, the results for the FICI80 in the test with Candida albicans [1] and in the test on Candida albicans [2] were 0.48 and 2, respectively. For the same compound, the MIC80 is 0.96 µg/mL with Candida albicans [3] and > 200 µg/mL in the test on Candida albicans [4].
